Counter-ions that a name gives are not always drawn. Like-named read-outs stand apart in the source and are kept apart here. Where only a bound is given, the exact number is not on record here.

The source of these data is patent publication US11492335B2, “Aryl or heteroaryl triazolone derivatives or salts thereof, or pharmaceutical compositions comprising the same” (YUHAN CORPORATION, priority 2018, dated 2022).

Format in all cases: biochemical
The target in test [1] is T1, recombinant human MAO-A (monoamine oxidase-A) (Homo sapiens, UniProt P21397).
T1 construct: purchased Sigma-Aldrich
T1 sequence (P21397 1-527): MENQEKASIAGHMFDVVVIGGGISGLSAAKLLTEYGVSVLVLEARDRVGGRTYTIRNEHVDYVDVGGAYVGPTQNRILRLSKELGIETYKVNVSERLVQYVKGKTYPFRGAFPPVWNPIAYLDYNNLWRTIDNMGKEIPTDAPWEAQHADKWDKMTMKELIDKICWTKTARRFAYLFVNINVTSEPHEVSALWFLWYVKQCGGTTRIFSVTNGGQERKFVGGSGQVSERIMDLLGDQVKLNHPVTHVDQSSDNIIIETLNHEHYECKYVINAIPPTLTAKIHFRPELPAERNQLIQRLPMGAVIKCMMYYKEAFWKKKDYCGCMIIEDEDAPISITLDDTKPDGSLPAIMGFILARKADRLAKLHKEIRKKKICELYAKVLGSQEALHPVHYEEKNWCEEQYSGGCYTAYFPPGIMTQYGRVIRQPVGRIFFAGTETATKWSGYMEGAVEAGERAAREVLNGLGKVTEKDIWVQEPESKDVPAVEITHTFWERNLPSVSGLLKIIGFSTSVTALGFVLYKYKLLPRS
The test can be described thus: Activity on recombinant human MAO-A, Amplex Red method, 0.5 mM tyramine substrate. The note with it: read-out: Inhibitory Activity (IC50, nM) MAO-A. A digest of the protocol: (§1)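 First, serially diluted compounds were incubated with recombinant enzyme in 50 mM sodium phosphate, pH 7.4, for 30 min at 37° C. Next, Amplex Red (200 uM), HRP (1 U/mL) and tyramine (0.5 mM, MAO-A) or benzylamine (1 mM, MAO-B) were added. Then fluorescence was monitored over 1-2 h and IC50 fitted.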

The target in test [2] is T2, recombinant human VAP-1 (Homo sapiens, UniProt Q16853).
T2 construct: purchased R&D systems
T2 sequence (Q16853 1-763): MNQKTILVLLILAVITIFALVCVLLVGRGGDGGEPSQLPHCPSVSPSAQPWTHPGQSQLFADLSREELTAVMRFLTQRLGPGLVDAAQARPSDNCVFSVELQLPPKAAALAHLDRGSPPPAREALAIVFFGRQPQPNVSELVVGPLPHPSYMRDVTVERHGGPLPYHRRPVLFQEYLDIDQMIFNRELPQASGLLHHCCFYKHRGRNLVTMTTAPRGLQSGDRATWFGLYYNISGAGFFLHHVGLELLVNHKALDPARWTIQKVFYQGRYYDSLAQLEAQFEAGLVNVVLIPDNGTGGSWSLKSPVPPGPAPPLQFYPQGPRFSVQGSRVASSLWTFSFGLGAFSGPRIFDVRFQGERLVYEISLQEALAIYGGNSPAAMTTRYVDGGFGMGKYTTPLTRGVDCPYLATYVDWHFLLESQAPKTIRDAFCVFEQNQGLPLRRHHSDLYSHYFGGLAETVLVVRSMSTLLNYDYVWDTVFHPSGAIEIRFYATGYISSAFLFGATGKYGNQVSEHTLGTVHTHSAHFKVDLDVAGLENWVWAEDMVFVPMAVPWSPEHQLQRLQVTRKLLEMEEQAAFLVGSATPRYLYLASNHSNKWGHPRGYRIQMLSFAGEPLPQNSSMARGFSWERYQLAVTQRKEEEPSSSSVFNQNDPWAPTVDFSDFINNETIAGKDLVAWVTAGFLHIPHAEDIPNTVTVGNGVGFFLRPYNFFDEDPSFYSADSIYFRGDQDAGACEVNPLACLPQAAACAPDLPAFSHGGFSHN
In words: Activity on recombinant human VAP-1, Amplex Red HRP-coupled hydrogen peroxide assay, benzylamine substrate. The note with it: recombinant human VAP-1, benzylamine substrate, read-out: Inhibitory Activity (IC50, nM) human VAP-1. A digest of the protocol: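 H2O2 generation from 1 mM benzylamine was coupled via 1 U/mL HRP to 200 uM Amplex Red; inhibitors, serially diluted 1:3 over 8 points with under 1% final DMSO, had been preincubated 30 min at 37 °C. IC50 from percentage drop in rate.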

The target of test [3] is T3, recombinant human DAO (diamine oxidase) (Homo sapiens, UniProt P19801).
T3 construct: purchased R&D systems
T3 sequence (P19801 20-751): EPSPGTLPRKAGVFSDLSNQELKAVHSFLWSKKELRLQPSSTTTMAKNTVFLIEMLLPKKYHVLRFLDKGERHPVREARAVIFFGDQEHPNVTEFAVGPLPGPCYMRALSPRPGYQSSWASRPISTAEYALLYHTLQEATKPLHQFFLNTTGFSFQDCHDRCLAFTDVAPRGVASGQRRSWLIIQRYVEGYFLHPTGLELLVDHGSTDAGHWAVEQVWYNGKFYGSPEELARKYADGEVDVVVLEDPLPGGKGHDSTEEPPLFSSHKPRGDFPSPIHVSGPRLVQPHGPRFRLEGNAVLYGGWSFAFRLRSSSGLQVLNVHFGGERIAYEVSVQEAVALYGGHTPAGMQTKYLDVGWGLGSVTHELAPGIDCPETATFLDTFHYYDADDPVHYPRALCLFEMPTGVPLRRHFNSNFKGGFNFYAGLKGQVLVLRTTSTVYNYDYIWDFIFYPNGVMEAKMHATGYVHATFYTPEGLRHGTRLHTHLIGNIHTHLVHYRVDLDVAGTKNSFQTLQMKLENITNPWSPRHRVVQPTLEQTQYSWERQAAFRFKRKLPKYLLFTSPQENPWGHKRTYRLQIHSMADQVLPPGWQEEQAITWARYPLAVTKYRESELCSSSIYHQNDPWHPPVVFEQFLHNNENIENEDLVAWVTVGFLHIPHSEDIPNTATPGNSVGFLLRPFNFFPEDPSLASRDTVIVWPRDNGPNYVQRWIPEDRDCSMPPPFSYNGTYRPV
The test can be described thus: Activity on recombinant human DAO, Amplex Red method, 1 mM putrescine substrate. The note with it: recombinant human DAO, read-out: Inhibitory Activity (IC50, nM) DAO. A digest of the protocol: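 Inhibition of recombinant human DAO (diamine oxidase, R&D systems) was assessed with the Amplex Red Hydrogen Peroxide Assay Kit. Hydrogen peroxide produced from 1 mM putrescine was detected through an HRP-coupled reaction that converts Amplex Red into fluorescent resorufin, read at 544 nm excitation and 590 nm emission. IC50 values came from four-parameter logistic fits in GraphPad Prism.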

The target of test [4] is T4, recombinant human MAO-B (monoamine oxidase-B) (Homo sapiens, UniProt P27338).
T4 construct: purchased Sigma-Aldrich
T4 sequence (P27338 1-520): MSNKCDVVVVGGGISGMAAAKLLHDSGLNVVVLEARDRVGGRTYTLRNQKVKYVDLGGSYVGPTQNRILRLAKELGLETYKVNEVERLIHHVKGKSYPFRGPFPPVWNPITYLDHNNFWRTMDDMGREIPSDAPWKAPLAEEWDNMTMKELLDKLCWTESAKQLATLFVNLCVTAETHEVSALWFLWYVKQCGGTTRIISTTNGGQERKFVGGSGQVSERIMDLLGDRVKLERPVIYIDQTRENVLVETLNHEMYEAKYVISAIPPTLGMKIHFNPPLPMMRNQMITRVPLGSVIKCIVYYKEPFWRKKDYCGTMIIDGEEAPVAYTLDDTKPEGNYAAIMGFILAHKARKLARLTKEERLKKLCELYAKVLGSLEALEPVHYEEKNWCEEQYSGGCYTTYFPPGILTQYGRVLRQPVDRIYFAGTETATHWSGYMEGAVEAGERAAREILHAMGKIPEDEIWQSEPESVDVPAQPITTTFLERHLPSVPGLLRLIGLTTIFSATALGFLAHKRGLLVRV
The test can be described thus: Activity on recombinant human MAO-B, Amplex Red method, 1 mM benzylamine substrate. The note with it: read-out: Inhibitory Activity (IC50, nM) MAO-B. A digest of the protocol:
as §1

[5] abbreviates: 1 mM putrescine, * = between 10 and 100 nM, ** = between 300 and 1000 nM.

Regarding `CN(C)c1cccc(-c2cccc(-n3cnn(C/C(=C/F)CN)c3=O)n2)c1` [Example 174, 2-[(2E)-2-(aminomethyl)-3-fluoroprop-2-en-1-yl]-4-{6-[3-(dimethylamino)phenyl]pyridin-2-yl}-2,4-dihydro-3H-1,2,4-triazol-3-one hydrochloride], the IC50 was > 100000 nM in test [1] (0.5 mM tyramine substrate), 2.2 nM in test [2], 1100 nM in test [3] (1 mM putrescine substrate) and 710 nM in test [4] (1 mM benzylamine substrate).

`NC/C(=C\F)Cn1ncn(-c2cccc(-c3ccc4c(c3)OCO4)c2)c1=O` [Example 93, 2-[(2E)-2-(aminomethyl)-3-fluoroprop-2-en-1-yl]-4-[3-(1,3-benzodioxol-5-yl)phenyl]-2,4-dihydro-3H-1,2,4-triazol-3-one hydrochloride]: the IC50 in test [1] (0.5 mM tyramine) is > 10000 nM; in test [2] (30 min preincubation at 37° C.), 0.48 nM; in test [3] (setting [5]), < 100 nM; in test [4] (1 mM benzylamine), 221 nM.

Regarding `CC(=O)Nc1ccc(-c2ccc(-n3cnn(C/C(=C\F)CN)c3=O)nc2)cc1` [Example 130, N-[4-(6-{1-[(2Z)-2-(aminomethyl)-3-fluoroprop-2-en-1-yl]-5-oxo-1,5-dihydro-4H-1,2,4-triazol-4-yl}pyridin-3-yl)phenyl]acetamide hydrochloride], the IC50 in test [1] (0.5 mM tyramine) is 26000 nM; in test [2] (30 min preincubation at 37° C.) it was 0.39 nM; in test [3] (setting [5]), 1 to 10 nM; in test [4] (1 mM benzylamine), 20 nM.

As to `Cn1cc(C#Cc2cccc(-n3cnn(C/C(=C/F)CN)c3=O)n2)cn1` [Example 257, 2-[(2E)-2-(aminomethyl)-3-fluoroprop-2-en-1-yl]-4-{6-[(1-methyl-1H-pyrazol-4-yl)ethynyl]pyridin-2-yl}-2,4-dihydro-3H-1,2,4-triazol-3-one hydrochloride], the half-inhibitory concentration (IC50) in test [1] (0.5 mM tyramine substrate) is > 100000 nM; in test [2], 0.4 nM; in test [3] (1 mM putrescine substrate) it was 90 nM; in test [4] (1 mM benzylamine substrate), 5700 nM.

Regarding `NC/C(=C/F)Cn1ncn(-c2nccs2)c1=O` [Example 39, 2-[(2Z)-2-(aminomethyl)-3-fluoroprop-2-en-1-yl]-4-(1,3-thiazol-2-yl)-2,4-dihydro-3H-1,2,4-triazol-3-one hydrochloride], the half-maximal inhibitory concentration (IC50) came to 5700 nM in test [1] (0.5 mM tyramine), 1.7 nM in test [2] (30 min preincubation at 37° C.), 30 nM in test [3] (setting [5]) and 2100 nM in test [4] (1 mM benzylamine).

Take `NC/C(=C\F)Cn1ncn(-c2cccc(-c3cccc4c3oc3ccccc34)n2)c1=O` [Example 203, 2-[(2E)-2-(aminomethyl)-3-fluoroprop-2-en-1-yl]-4-[6-(dibenzo[b,d]furan-4-yl)pyridin-2-yl]-2,4-dihydro-3H-1,2,4-triazol-3-one hydrochloride]: the half-maximal inhibitory concentration (IC50) turned out to be 12000 nM in test [1] (0.5 mM tyramine substrate), 1.8 nM in test [2], 3 nM in test [3] (1 mM putrescine substrate) and 73 nM in test [4] (1 mM benzylamine substrate).

In the case of `Cc1cc(-c2ccc3c(c2)OCO3)cnc1-n1cnn(C/C(=C/F)CN)c1=O` [Example 150, 2-[(2E)-2-(aminomethyl)-3-fluoroprop-2-en-1-yl]-4-[5-(2H-1,3-benzodioxol-5-yl)-3-methylpyridin-2-yl]-2,4-dihydro-3H-1,2,4-triazol-3-one hydrochloride], the IC50 in test [1] (0.5 mM tyramine) was determined as 4800 nM; in test [2] (30 min preincubation at 37° C.) it was 0.35 nM; in test [3] (setting [5]) it was 480 nM; in test [4] (1 mM benzylamine), 170 nM.

Turning to `CC(=O)Nc1cc(-c2cc(C)c(-n3cnn(C/C(=C/F)CN)c3=O)cn2)ccn1` [Example 123, N-(5-{1-[(2E)-2-(aminomethyl)-3-fluoroprop-2-en-1-yl]-5-oxo-1,5-dihydro-4H-1,2,4-triazol-4-yl}-4-methyl-2,4′-bipyridin-2′-yl)acetamide], the half-inhibitory concentration (IC50) in test [1] (0.5 mM tyramine) is > 100000 nM; in test [2] (30 min preincubation at 37° C.) it was 1.3 nM; in test [3] (setting [5]), < 100 nM; in test [4] (1 mM benzylamine) it was 3220 nM.
